Measured values as given in ChEMBL document CHEMBL1157539, “Thousands of chemical starting points for antimalarial lead identification” (Nature, 2010).

System: Plasmodium falciparum
Test: GSK_TCMDC: Inhibition of Plasmodium falciparum 3D7 in whole erythrocytes, using parasite LDH activity as an index of growth.
Format: functional, organism-based
Conditions: Plasmodium falciparum, 3D7

SMILES | XC50
COc1ccc(-c2nc(NC(=O)CSc3ccccc3)sc2C)cc1 | 764 nM
COc1cc2nc(NCc3cccc(CNC(=O)c4ccc(-c5ccc(C(C)=O)cc5)cc4)c3)nc(N)c2cc1OC | 118 nM
O=C(Nc1ccc(OC2CCN(Cc3ccc(F)cc3)CC2)c(Cl)c1)c1ccsc1 | 717 nM
O=C(CCNc1ccnc(NCCc2ccc(F)cc2)n1)Nc1ccccc1 | 829 nM
CC(=O)c1ccc(-c2cccc3c(CC(=O)Nc4ccc5nccc(N6CCN(C)CC6)c5c4)cccc23)cc1 | 498 nM
Cc1ccc(C(=O)Nc2ccc(Cl)c(N3CCN(CCc4ccccc4)CC3)c2)cc1 | 926 nM
c1ccc(-c2ccc3c(Nc4ccc5[nH]ccc5c4)ccnc3c2)nc1 | 943 nM
OC(CNCc1ccccc1OCc1ccccc1)c1cc(C(F)(F)F)cc(C(F)(F)F)c1 (stereo not given) | 134 nM
CN(CCc1ccccc1)c1ncc(-c2ccccc2CNCc2ccccc2O)cn1 | 1020 nM
Cc1ccc(CNC(=O)c2cnc(N3CCN(c4ccncc4)CC3)c(Cl)c2)cc1 | 1290 nM
CC(C)N1CCC(N(Cc2ccc(-c3ccc(C(F)(F)F)cc3)cc2)C(=O)Cn2c(SCc3cccc(F)c3F)cc(=O)c3ccccc32)CC1 | 817 nM
COc1cc2nc(-c3ccccc3)nc(N3CCN(C(=O)c4ccco4)CC3)c2cc1OC | 1410 nM
Fc1ccc(N(c2nc(-c3cc(F)cc(C(F)(F)F)c3)cs2)C2CCNCC2)cc1 | 956 nM
COC(=O)c1ccc2nc(-c3ccc(/C=C/C(=O)NCc4ccc(Cl)c(Cl)c4)cc3)[nH]c2c1 | 1340 nM
CN(C)CCn1c(N)c(-c2nc3ccccc3s2)c2nc(C#N)c(C#N)nc21 | 1010 nM
CCOc1c(OC)ccc2c1CCN(CCN1CCC(CNC(=O)c3ccc(-c4ccc(C#N)cc4)cc3)CC1)C2 | 1080 nM
Cc1cc(=NN=Cc2ccc(F)cc2)c2cccc(C)c2[nH]1 | 779 nM
CCOC(=O)c1cnc2c(OC)cc(OC)c(Cl)c2c1Nc1ccccc1 | 871 nM
OCCN1CCN(Cc2cccc(-c3cccc(-c4nc5cc(F)ccc5[nH]4)c3)c2)CC1 | 706 nM
COc1ccccc1CN1CCC(NC(=O)c2ccc(-c3cccc(C(F)(F)F)c3)s2)CC1 | 1310 nM
CCOC(=O)c1ccc(N=C2SC(=Cc3cc(Br)ccc3O)C(=O)N2C)cc1 | 998 nM
CN1CCCN(Cc2ccc(-c3cccc(NC(=O)c4cccc(F)c4)c3)cc2)CC1 | 980 nM
Cc1cc(Nc2ncc(C#N)c(Nc3ccccc3C(N)=O)n2)ccc1N1CCN(C)CC1 | 8.63 nM
NC(=O)c1ccccc1OCC(=O)Nc1cccc(-c2ccc(-c3nc4cc(C(F)(F)F)ccc4[nH]3)cc2)c1 | 647 nM
Nc1ncc(-c2ccc(F)cc2)cc1-c1nc2ccc(Cl)cc2[nH]1 | 753 nM

SMILES | XC50
O=C(Nc1ccc(C(F)(F)F)cc1)c1ccc(S(=O)(=O)NC2CCCN(CC3CCCCC3)C2)cc1 (stereo not given) | 718 nM
COc1ccc(C(=O)NCc2ccc(N)nc2C)cc1Nc1ncc(-c2cccc(N(C)C)c2)cn1 | 897 nM
N=C(N)NN=Cc1cc2ccccc2c2ccccc12 | 180 nM
CCc1ccc(NC(=O)c2cccc(CN3CCCN(Cc4cccc(O)c4)CC3)c2)cc1 | 894 nM
c1ccc(Oc2ccc(Nc3ccnc4cc(-c5ccc(CNCCN6CCOCC6)o5)ccc34)cc2)nc1 | 1440 nM
COc1ccc(O)c(Cc2cnc3nc(N)[nH]c(=O)c3c2C)c1 | 234 nM
CCCN(CCC)CCCCC(C)Nc1c2ccc(Cl)cc2nc2ccc(OC)cc12 (stereo not given) | 137 nM
c1csc(-c2nc(N3CCCCC3)ncc2-c2ccsc2)n1 | 136 nM
CC(C)(Cc1ccc(Cl)cc1)NCCCCCCNCCc1ccc(O)c(O)c1 | 1200 nM
NC1CCCN(Cc2cccc(-c3ccc(-c4nc5cc(F)ccc5[nH]4)cc3)c2)C1 (stereo not given) | 566 nM
COc1cccc(OC)c1CN1CCC(N(C)CCCCCCCCCN2CCC(OC(=O)Nc3ccccc3-c3ccccc3)CC2)CC1 | 319 nM
O=C(CN1CCCC1)Nc1cccc(C(=O)Nc2cccc(C(F)(F)F)c2)c1 | 510 nM
CCc1ccc(N2C(N)=NC(N)=NC2(C)C)cc1 | 8.82 nM
CCC(C)NC(=O)Nc1ccc(-c2cccc(-c3nc4cccc(C)c4[nH]3)c2)cc1 (stereo not given) | 189 nM
CCN(CC)CCCC(C)Nc1cc(C)nc2cc(Cl)ccc12 (stereo not given) | 726 nM
CNC(=O)c1c(NC(=O)c2cccs2)sc2c1CCCC2 | 818 nM
CCCc1cccc(OC)c1OCCCON1C(N)=NC(N)=NC1(C)C | 3.2 nM
c1ccc(Oc2ccc(Nc3ccnc4cc(-c5ccc(CN6CCCCC6)o5)ccc34)cc2)nc1 | 331 nM
Fc1ccc(-c2cncc(Nc3ccncc3)n2)cc1 | 1320 nM
CCCNCc1ccc(-c2ccc(CN(CCOC)C(=O)CCc3ccc(OC)cc3)cc2)nc1 | 981 nM
Cc1cc(N2CCN(C(=O)OC(C)(C)C)CC2)ccc1N | 865 nM
COc1cc(NC(=O)CCCN2CCN(c3cccc(Cl)c3Cl)CC2)ccc1N1CCN(C(C)C)CC1 | 946 nM
O=C(Nc1cccc(-c2ccc(-c3nc4ccccc4[nH]3)cc2)c1)c1cccnc1 | 1040 nM
CCC(c1ccccc1)c1nn2c(-c3cccs3)nnc2s1 (stereo not given) | 167 nM
O=C(NC1CCN(Cc2ccccc2)CC1)c1cc(-c2ccncc2)nc2ccc(Cl)cc12 | 920 nM

SMILES | XC50
Nc1nc(N)c2cc(NS(=O)(=O)c3ccc(-c4ccccc4)cc3)ccc2n1 | 699 nM
Cc1ccc2[nH]c3c(NCCCN4CCOCC4)ncnc3c2c1 | 942 nM
O=C(NC1CC1)c1cnc(N2CCN(Cc3c(F)cccc3Cl)CC2)c(Cl)c1 | 905 nM
CN(C(=O)c1cc2c(-c3cncnc3)cccc2[nH]1)c1ccccc1 | 628 nM
COc1cc(OC)cc(-c2nc3ccc(OCCN(C)C)c(C#N)c3[nH]2)c1 | 655 nM
O=C(Nc1ccc(F)cc1)c1ccc(C(=O)NC2CCN(CC3CCCCC3)CC2)cc1 | 544 nM
CN1CCCN(c2ccnc3cc4c(cc23)N(C(=O)c2ccc(C(F)(F)F)cc2)CC4)CC1 | 794 nM
Oc1c(C(Nc2ccccn2)c2ccco2)cc(Cl)c2cccnc12 (stereo not given) | 1010 nM
OC(c1ccc(Cl)cc1)(c1ccc(Cl)cc1)C(c1ccc(Cl)cc1)n1ccnc1 (stereo not given) | 863 nM
OC(CNC1CCCCC1)c1ccc(Cl)c(Cl)c1 (stereo not given) | 698 nM
Nc1cc(-c2cccc(Cl)c2)nn1-c1ccnc2cc(Cl)ccc12 | 753 nM
COCCCNC(=O)c1ccc(O)c(-c2cc(Cl)cc(Cl)c2)c1 | 923 nM
Cc1cc(Cl)c(S(=O)(=O)N2CCc3ccccc32)cc1OCC(=O)NC1CCCCC1 | 302 nM
Cc1ccc(-c2nc(N3CCN(C(=O)c4ccco4)CC3)c3ccccc3n2)cc1 | 970 nM
N=C(N)NC(=O)Nc1ccc(Cl)c(C(F)(F)F)c1 | 594 nM
Cc1nc(-c2cccc(Nc3ccnc4cc(-c5nccs5)ccc34)c2)no1 | 322 nM
CN1CC[C@@H](Oc2cc(C(=O)NCc3ccc(Cl)c(Cl)c3)ccc2C(F)(F)F)C1 | 1250 nM
CCOc1cc(C)ccc1C1CCN(CCCCNC(=O)c2cccc(-c3ccc(C(F)(F)F)cc3)c2)CC1 | 937 nM
CCCCC(CCCC)CN1C(=O)C(c2ccccc2)(c2ccccc2)N=C1N | 182 nM
C=CCn1cc(C2CCN(CCCCNC(=O)c3sc(-c4ccc(C(F)(F)F)cc4)nc3CO)CC2)c2cc(OC)ccc21 | 1040 nM
Nc1ccc2[nH]cc(C3CCN(CCC4CCN(C(=O)/C=C/c5ccc(Cl)c(Cl)c5)CC4)CC3)c2n1 | 737 nM
CCCCCCN1CCC(NCc2ccc(C)cc2)CC1 | 860 nM
Cc1c(F)cc(C(=O)NC2CC2)cc1-c1ccc2c(cnn2S(=O)(=O)c2ccc(F)c(F)c2)c1 | 265 nM
CC1CC(NCCCNc2cc(=O)c3ccccc3[nH]2)c2cc(Cl)c(Cl)c(Cl)c21 (stereo not given) | 724 nM
CC(=O)Nc1cccc(NC(=O)CSc2ccc(-c3nc4ccccc4[nH]3)cn2)c1 | 559 nM

SMILES | XC50
O=C(Nc1cccc(-c2cccc(-c3nc4cc(C(F)(F)F)ccc4[nH]3)c2)c1)c1cccnc1Cl | 657 nM
CCCC(=O)Nc1ccc(Cl)c(NC(=O)COc2cc(C)ccc2C(C)C)c1 | 933 nM
Cc1cc(NC(=O)Nc2ccc3nccc(N4CCN(C)CC4)c3c2)ccc1Br | 92.7 nM
Oc1ccc(CCNc2nc(NCc3ccccc3-c3ccc(C(F)(F)F)cc3)nc(N3CCCNCC3)n2)cc1 | 866 nM
COc1ccc(C(=O)N2CCC(C(=O)NC(C)c3ccc(-n4ccnc4)cc3)CC2)c2ccccc12 (stereo not given) | 1130 nM
CCCCCCN1CCCN(Cc2cccc(NC(=O)c3cc4ccccc4s3)c2)CC1 | 660 nM
FC(F)(F)c1ccc2[nH]c(-c3cccc(-c4cccc(CNCc5cnn(-c6ccccc6)n5)c4)c3)nc2c1 | 552 nM
Cc1cnc(NC(=O)c2cn(-c3ccccc3)nc2-c2cccs2)s1 | 945 nM
OC(CNCc1ccccc1OCc1ccccc1)c1cc(Br)cs1 (stereo not given) | 722 nM
Oc1ccc(CCNc2nc(NCCCOc3ccccc3-c3ccc(C(F)(F)F)cc3)nc(N3CCNCC3)n2)cc1 | 891 nM
O=C(Nc1ccc2c(c1)CCN2C1CCN(Cc2ccc(C(F)(F)F)cc2F)C1)c1ccco1 (stereo not given) | 510 nM
COc1ccc(C(C(=O)NC2CCN(C[C@H](O)c3ccnc4ccc(OC)cc34)CC2)N2CCN(c3ccc(Cl)c(Cl)c3)CC2)cc1 (stereo not given in full) | 204 nM
C[C@@H](Oc1cc(-n2cnc3ccc(NC(=O)NC(C)(C)C)cc32)sc1C(N)=O)c1ccccc1Cl | 330 nM
O=C(C=Cc1cn(-c2ccccc2)nc1-c1ccccc1)N1CCN(c2ccncc2)CC1 | 965 nM
COc1cc2c(cc1N1CC(C)NC(C)C1)N(C(=O)c1ccc(-c3ccc(-c4ncc[nH]4)cc3C)cc1)CC2 (stereo not given) | 717 nM
O=C(NCCN1CCCC1)c1ccc(-c2cccc(-c3nc4cc(F)ccc4[nH]3)c2)cc1 | 774 nM
O=C(Cc1ccccc1)NC(c1ccc(Cl)cc1)c1ccc2cccnc2c1O (stereo not given) | 861 nM
Cc1ccc(NC(=O)c2cc(S(=O)(=O)NC(C)(C)C)ccc2C)nc1 | 756 nM
CCN(CC)CCN(Cc1ccc(-c2ccc(C(F)(F)F)s2)cc1)C(=O)Cn1c(CCc2cccc(F)c2F)nc(=O)c2ccccc21 | 994 nM
Cc1ccc(C)c(Cn2c(N3CCC(C(=O)NCc4cccs4)CC3)nc3ccccc32)c1 | 938 nM
Cc1cccc2nc(-c3ccc(-c4ccc(NC(=O)Nc5cccc(C#N)c5)cc4)cc3)[nH]c12 | 114 nM
C=CCOC1OC(COC(c2ccccc2)(c2ccccc2)c2ccccc2)C(OC(C)=O)C(OC(C)=O)C1NC(C)=O (stereo not given) | 657 nM
Cc1cccc2nc(-c3ccc(-c4ccc(NC(=O)Nc5ccc(Cl)cc5)cc4)s3)[nH]c12 | 152 nM
CC1CN(CC(O)Cn2c3ccc(Br)cc3c3cc(Br)ccc32)CC(C)O1 (stereo not given) | 776 nM
CN1CCN(c2cc(NC(=O)Nc3ccc(-c4ccncc4)c(Cl)c3)ccc2Br)CC1 | 899 nM
